SMILES strings stand for the structures.

What all share (type): in vivo
For assay [1], the system named is children with ADHD and allergic rhinitis. Description: STUDY A: ADHD measures, Conners' Rating Scale t-scores. Conditions: po qam for 2 weeks; for hyperactivity t-scores (FIG. 1): evaluation of the ADHD parameters. The protocol:
(§1) In general, two studies were conducted to better understand the association between the allergy/immune system and the central nervous system. STUDY A, tested the effects of cetirizine (namely ZYRTEC), cetirizine and methylphenidate (namely RITALIN SR), and methylphenidate, versus placebo on attention, memory, and behavior in children with ADHD and allergic rhinitis. STUDY B assessed NGF response to cetirizine and methylphenidate treatment in children with ADHD and allergic rhinitis.
(§2) The individuals chosen to be a part of these studies had the following characteristics:
(§3) All subjects were randomized into one of four treatment groups as follows:
(§4) 1) cetirizine alone: 10 mg po qam for 2 weeks;
(§5) 2) Combination of cetirizine and methylphenidate: 10 mg po qam RITALIN SR (20 mg if <65 kg; 40 mg if ≧65 kg) po qam for 2 weeks;
(§6) 3) Methylphenidate alone: (20 mg if <65 kg; 40 mg if ≧65 kg) po qam for 2 weeks; and
5) Conners' Rating Scale—Revised, (CRS)

Assay [2] shares this test system. Description: STUDY A: allergic rhinitis measures (rhinoconjunctivitis symptoms, RQLQ). The settings on record: children 8-18 years with ADHD and seasonal allergic rhinitis; po qam for 2 weeks. The protocol:
as §1, §2, §3, §4, §5, §6
1) Rhinoconjunctivitis Symptoms
2) Total Symptom Severity Complex, (TSSC)
3) Adolescent Rhinoconjunctivitis Quality of Life Questionnaire, (RQLQ)

Another assay has as its system NGF. Description: STUDY B: serum NGF assay by ELSA (Enzyme-Linked Immunosorbent Assay). The settings on record: children with ADHD and allergies; po qam for 2 weeks; NGF highest on placebo. The protocol: as §1, §2, §3, §4, §5
3) Methylphenidate alone: (20 mg if <65 kg; 40 mg if ≧65 kg) po qam for 2 weeks; and […]

Regarding `O=C(O)COCCN1CCN(C(c2ccccc2)c2ccc(Cl)cc2)CC1` (stereo not drawn) [cetirizine], in assay [1], the “hyperactivity t-scores (FIG. 1)” value is on record as “no difference was noted”, the “parental Conner's report: ADHD score” value is listed as “no difference was recorded”, the “parental Conner's report: hyperactivity score” value is listed as “no difference was recorded” and the “parental Conner's report: inattention score” value was “no difference was recorded”. In addition, in assay [1], the “parental Conner's report: oppositional score” value is “no difference was recorded”. Moreover, in assay [2], the “RQLQ emotional symptoms, change from baseline” value was “similar”; the RQLQ nasal symptoms entry is “methylphenidate had a superior effect compared to cetirizine”; the “rhinoconjuctivitis quality of life scores” value is recorded as “methylphenidate had a superior effect compared to cetirizine”. Moreover, the “serum NGF level versus placebo” value in the assay with NGF is on record as “downregulated to the same extent”.

Take `COC(=O)C(c1ccccc1)C1CCCCN1` (stereo not drawn) [methylphenidate]: in assay [1], the “hyperactivity t-scores (FIG. 1)” value is given as “no difference was noted”, the “parental Conner's report: ADHD score” value is recorded as “no difference was recorded”, the “parental Conner's report: hyperactivity score” value is on record as “no difference was recorded” and the “parental Conner's report: inattention score” value is on record as “no difference was recorded”. In addition, the “parental Conner's report: oppositional score” value in assay [1] is on record as “no difference was recorded”. Moreover, in assay [2], the “RQLQ emotional symptoms, change from baseline” value is given as “similar”; the RQLQ nasal symptoms entry is “superior effect compared to cetirizine”; the “rhinoconjuctivitis quality of life scores” value is on record as “superior effect compared to cetirizine”. Moreover, in the assay on NGF, the “serum NGF level versus placebo” value is reported as “downregulated to the same extent”.

The record behind these values is patent publication US20100069402A1, “Treatment of Behavioral Disorders” (priority 2004, published 2010).
